Experiment: Solubility in an organic solvent
Assay type: physicochemical
Settings: 1 μml of compound added to 1 ml solvent, mixed 15 minutes; chloroform for Examples 7 to 8, toluene for Examples 9 to 10 and Comparative Example 1
Protocol: Solubility of organic silane compounds synthesized in Examples 7 to 10, and 6,8,11,13-tetra(N,N-diphenylamino)pentacene of Comparative Example 1 in an organic solvent was assessed. More particularly, 1 μml of each compound was added to 1 ml of the following organic solvent, and this was mixed for 15 minutes.
Examples 9 to 10 and Comparative Example 1
Each of organic silane compounds of Examples 7 to 10 was dissolved in an organic solvent to obtain a transparent solution.

c1ccc(N(c2ccccc2)c2ccc(N(c3ccccc3)c3ccccc3)c3cc4c(N(c5ccccc5)c5ccccc5)c5cc6ccccc6cc5c(N(c5ccccc5)c5ccccc5)c4cc23)cc1 [Comparative Example 1, 6,8,11,13-tetra(N,N-diphenylamino)pentacene]
Solubility in an organic solvent: only dispersed and not dissolved in an organic solvent

From patent US20080207864A1, “Organosilanes, Process For Production of the Same, and Use Thereof” (priority 2004, published 2008)
